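Dose response: 5 concentrations. Exposure: 48 h. Format: 96-well plates. Endpoint: linear interpolation; highest concentration if not reached. TGI denotes the concentration required for complete inhibition of growth.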
Legend:
Assay in all cases: DTP human tumour cell line panel, 48 h
RPMI-8226 leukemia = tested on: RPMI-8226 leukemia
K-562 leukemia = tested on: K-562 leukemia
SR leukemia = tested on: SR leukemia
U251 CNS = tested on: U251 CNS
COLO 205 colon = tested on: COLO 205 colon
MALME-3M melanoma = tested on: MALME-3M melanoma
NCI-H23 lung = tested on: NCI-H23 lung
OVCAR-5 ovarian = tested on: OVCAR-5 ovarian
SN12C renal = tested on: SN12C renal
NCI-H226 lung = tested on: NCI-H226 lung
HT29 colon = tested on: HT29 colon
NCI-H522 lung = tested on: NCI-H522 lung
MCF7 breast = tested on: MCF7 breast
OVCAR-3 ovarian = tested on: OVCAR-3 ovarian
HCT-15 colon = tested on: HCT-15 colon
RXF 393 renal = tested on: RXF 393 renal
M14 melanoma = tested on: M14 melanoma
786-0 renal = tested on: 786-0 renal
SK-MEL-28 melanoma = tested on: SK-MEL-28 melanoma
IGROV1 ovarian = tested on: IGROV1 ovarian
SK-OV-3 ovarian = tested on: SK-OV-3 ovarian
UACC-257 melanoma = tested on: UACC-257 melanoma
CCRF-CEM leukemia = tested on: CCRF-CEM leukemia
HOP-62 NSCLC = tested on: HOP-62 NSCLC
MDA-N = tested on: MDA-N
KM12 colon = tested on: KM12 colon
ACHN renal = tested on: ACHN renal
SF-295 CNS = tested on: SF-295 CNS
OVCAR-4 ovarian = tested on: OVCAR-4 ovarian
HOP-92 NSCLC = tested on: HOP-92 NSCLC
HCC-2998 colon = tested on: HCC-2998 colon
HCT-116 colon = tested on: HCT-116 colon
SK-MEL-5 melanoma = tested on: SK-MEL-5 melanoma
UACC-62 melanoma = tested on: UACC-62 melanoma
NCI-H460 lung = tested on: NCI-H460 lung
SF-539 CNS = tested on: SF-539 CNS
SNB-19 CNS = tested on: SNB-19 CNS
MDA-MB-231 breast = tested on: MDA-MB-231 breast
UO-31 renal = tested on: UO-31 renal
MOLT-4 leukemia = tested on: MOLT-4 leukemia
BT-549 breast = tested on: BT-549 breast
OVCAR-8 ovarian = tested on: OVCAR-8 ovarian
CAKI-1 renal = tested on: CAKI-1 renal
MDA-MB-435 = tested on: MDA-MB-435
NCI/ADR-RES ovarian = tested on: NCI/ADR-RES ovarian
DU-145 prostate = tested on: DU-145 prostate
T-47D breast = tested on: T-47D breast
SNB-75 CNS = tested on: SNB-75 CNS
TK-10 renal = tested on: TK-10 renal
A498 renal = tested on: A498 renal
SF-268 CNS = tested on: SF-268 CNS
EKVX NSCLC = tested on: EKVX NSCLC
PC-3 prostate = tested on: PC-3 prostate
A549 NSCLC = tested on: A549 NSCLC
HS 578T breast = tested on: HS 578T breast
SW-620 colon = tested on: SW-620 colon
SK-MEL-2 melanoma = tested on: SK-MEL-2 melanoma
HL-60(TB) leukemia = tested on: HL-60(TB) leukemia
LOX IMVI melanoma = tested on: LOX IMVI melanoma

COC(=O)C1=C(C)N2[C@H](C(=O)O)CO[C@@]2(C)[C@H](C(=O)OC)[C@H]1c1cccc([N+](=O)[O-])c1
TGI (RPMI-8226 leukemia): > 100 µM
TGI (K-562 leukemia): > 100 µM
TGI (SR leukemia): > 100 µM
TGI (U251 CNS): > 100 µM
TGI (COLO 205 colon): > 100 µM
TGI (MALME-3M melanoma): > 100 µM
TGI (NCI-H23 lung): > 100 µM
TGI (OVCAR-5 ovarian): > 100 µM
TGI (SN12C renal): > 100 µM
TGI (NCI-H226 lung): > 100 µM
TGI (HT29 colon): > 100 µM
TGI (NCI-H522 lung): > 100 µM
TGI (MCF7 breast): > 100 µM
TGI (OVCAR-3 ovarian): > 100 µM
TGI (HCT-15 colon): > 100 µM
TGI (RXF 393 renal): > 100 µM
TGI (M14 melanoma): > 100 µM
TGI (786-0 renal): > 100 µM
TGI (SK-MEL-28 melanoma): > 100 µM
TGI (IGROV1 ovarian): > 100 µM
TGI (SK-OV-3 ovarian): > 100 µM
TGI (UACC-257 melanoma): > 100 µM
TGI (CCRF-CEM leukemia): > 100 µM
TGI (HOP-62 NSCLC): > 100 µM
TGI (MDA-N): > 100 µM
TGI (KM12 colon): > 100 µM
TGI (ACHN renal): > 100 µM
TGI (SF-295 CNS): > 100 µM
TGI (OVCAR-4 ovarian): > 100 µM
TGI (HOP-92 NSCLC): > 100 µM
TGI (HCC-2998 colon): > 100 µM
TGI (HCT-116 colon): > 100 µM
TGI (SK-MEL-5 melanoma): > 100 µM
TGI (UACC-62 melanoma): > 100 µM
TGI (NCI-H460 lung): > 100 µM
TGI (SF-539 CNS): > 100 µM
TGI (SNB-19 CNS): > 100 µM
TGI (MDA-MB-231 breast): > 100 µM
TGI (UO-31 renal): > 100 µM
TGI (MOLT-4 leukemia): > 100 µM
TGI (BT-549 breast): > 100 µM
TGI (OVCAR-8 ovarian): > 100 µM
TGI (CAKI-1 renal): > 100 µM
TGI (MDA-MB-435): > 100 µM
TGI (NCI/ADR-RES ovarian): > 100 µM
TGI (DU-145 prostate): > 100 µM
TGI (T-47D breast): > 100 µM
TGI (SNB-75 CNS): > 100 µM
TGI (TK-10 renal): > 100 µM
TGI (A498 renal): > 100 µM
TGI (SF-268 CNS): > 100 µM
TGI (EKVX NSCLC): > 100 µM
TGI (PC-3 prostate): > 100 µM
TGI (A549 NSCLC): > 100 µM
TGI (HS 578T breast): > 100 µM
TGI (SW-620 colon): > 100 µM
TGI (SK-MEL-2 melanoma): > 100 µM

CC(=O)OCC1OC(n2c(=O)[nH]c(=O)c3sccc32)C(Br)C1OC(C)=O (stereo unspecified)
TGI (RPMI-8226 leukemia): > 100 µM
TGI (K-562 leukemia): > 100 µM
TGI (SR leukemia): > 100 µM
TGI (U251 CNS): > 100 µM
TGI (COLO 205 colon): > 100 µM
TGI (MALME-3M melanoma): > 100 µM
TGI (NCI-H23 lung): > 100 µM
TGI (OVCAR-5 ovarian): > 100 µM
TGI (HL-60(TB) leukemia): > 100 µM
TGI (SN12C renal): > 100 µM
TGI (NCI-H226 lung): > 100 µM
TGI (HT29 colon): > 100 µM
TGI (NCI-H522 lung): > 100 µM
TGI (MCF7 breast): > 100 µM
TGI (OVCAR-3 ovarian): > 100 µM
TGI (HCT-15 colon): > 100 µM
TGI (RXF 393 renal): > 100 µM
TGI (M14 melanoma): > 100 µM
TGI (786-0 renal): > 100 µM
TGI (SK-MEL-28 melanoma): > 100 µM
TGI (IGROV1 ovarian): > 100 µM
TGI (UACC-257 melanoma): > 100 µM
TGI (CCRF-CEM leukemia): > 100 µM
TGI (LOX IMVI melanoma): > 100 µM
TGI (HOP-62 NSCLC): > 100 µM
TGI (MDA-N): > 100 µM
TGI (KM12 colon): > 100 µM
TGI (ACHN renal): > 100 µM
TGI (SF-295 CNS): > 100 µM
TGI (OVCAR-4 ovarian): > 100 µM
TGI (HOP-92 NSCLC): > 100 µM
TGI (HCC-2998 colon): > 100 µM
TGI (HCT-116 colon): > 100 µM
TGI (SK-MEL-5 melanoma): > 100 µM
TGI (NCI-H460 lung): > 100 µM
TGI (SF-539 CNS): > 100 µM
TGI (SNB-19 CNS): > 100 µM
TGI (MDA-MB-231 breast): > 100 µM
TGI (UO-31 renal): > 100 µM
TGI (MOLT-4 leukemia): > 100 µM
TGI (BT-549 breast): > 100 µM
TGI (OVCAR-8 ovarian): > 100 µM
TGI (CAKI-1 renal): > 100 µM
TGI (MDA-MB-435): > 100 µM
TGI (NCI/ADR-RES ovarian): > 100 µM
TGI (DU-145 prostate): > 100 µM
TGI (SNB-75 CNS): > 100 µM
TGI (TK-10 renal): > 100 µM
TGI (A498 renal): > 100 µM
TGI (SF-268 CNS): > 100 µM
TGI (EKVX NSCLC): > 100 µM
TGI (PC-3 prostate): > 100 µM
TGI (A549 NSCLC): > 100 µM
TGI (HS 578T breast): > 100 µM
TGI (SW-620 colon): > 100 µM
TGI (SK-MEL-2 melanoma): > 100 µM

CCC1(COC(NC(=O)c2ccccc2)(C(F)(F)F)C(F)(F)F)COC1
TGI (RPMI-8226 leukemia): > 100 µM
TGI (K-562 leukemia): > 100 µM
TGI (SR leukemia): > 100 µM
TGI (U251 CNS): > 100 µM
TGI (COLO 205 colon): > 100 µM
TGI (NCI-H23 lung): > 100 µM
TGI (OVCAR-5 ovarian): > 100 µM
TGI (HL-60(TB) leukemia): > 100 µM
TGI (SN12C renal): > 100 µM
TGI (HT29 colon): > 100 µM
TGI (HCT-15 colon): > 100 µM
TGI (RXF 393 renal): > 100 µM
TGI (M14 melanoma): > 100 µM
TGI (786-0 renal): > 100 µM
TGI (SK-MEL-28 melanoma): > 100 µM
TGI (IGROV1 ovarian): > 100 µM
TGI (SK-OV-3 ovarian): > 100 µM
TGI (UACC-257 melanoma): > 100 µM
TGI (CCRF-CEM leukemia): > 100 µM
TGI (LOX IMVI melanoma): > 100 µM
TGI (MDA-N): > 100 µM
TGI (ACHN renal): > 100 µM
TGI (HCC-2998 colon): > 100 µM
TGI (HCT-116 colon): > 100 µM
TGI (SK-MEL-5 melanoma): > 100 µM
TGI (SF-539 CNS): > 100 µM
TGI (SNB-19 CNS): > 100 µM
TGI (UO-31 renal): > 100 µM
TGI (MOLT-4 leukemia): > 100 µM
TGI (BT-549 breast): > 100 µM
TGI (OVCAR-8 ovarian): > 100 µM
TGI (CAKI-1 renal): > 100 µM
TGI (MDA-MB-435): > 100 µM
TGI (NCI/ADR-RES ovarian): > 100 µM
TGI (T-47D breast): > 100 µM
TGI (SNB-75 CNS): > 100 µM
TGI (TK-10 renal): > 100 µM
TGI (A498 renal): > 100 µM
TGI (SF-268 CNS): > 100 µM
TGI (EKVX NSCLC): > 100 µM
TGI (PC-3 prostate): > 100 µM
TGI (A549 NSCLC): > 100 µM
TGI (HS 578T breast): > 100 µM
TGI (SW-620 colon): > 100 µM
TGI (SK-MEL-2 melanoma): > 100 µM

Cc1ccc(S(=O)(=O)NCCSCCSCCNS(=O)(=O)c2ccc(C)cc2)cc1
TGI (K-562 leukemia): > 100 µM
TGI (SR leukemia): > 100 µM
TGI (COLO 205 colon): 41.2 µM
TGI (SN12C renal): > 100 µM
TGI (NCI-H226 lung): > 100 µM
TGI (HT29 colon): > 100 µM
TGI (NCI-H522 lung): > 100 µM
TGI (MCF7 breast): > 100 µM
TGI (RXF 393 renal): > 100 µM
TGI (SK-MEL-28 melanoma): > 100 µM
TGI (SK-OV-3 ovarian): > 100 µM
TGI (UACC-257 melanoma): > 100 µM
TGI (CCRF-CEM leukemia): > 100 µM
TGI (LOX IMVI melanoma): > 100 µM
TGI (MDA-N): > 100 µM
TGI (KM12 colon): > 100 µM
TGI (ACHN renal): > 100 µM
TGI (SF-295 CNS): > 100 µM
TGI (OVCAR-4 ovarian): > 100 µM
TGI (HOP-92 NSCLC): > 100 µM
TGI (HCC-2998 colon): > 100 µM
TGI (HCT-116 colon): > 100 µM
TGI (SK-MEL-5 melanoma): 18 µM
TGI (NCI-H460 lung): > 100 µM
TGI (SNB-19 CNS): > 100 µM
TGI (UO-31 renal): > 100 µM
TGI (MOLT-4 leukemia): > 100 µM
TGI (OVCAR-8 ovarian): > 100 µM
TGI (NCI/ADR-RES ovarian): > 100 µM
TGI (DU-145 prostate): > 100 µM
TGI (SNB-75 CNS): 68.7 µM
TGI (TK-10 renal): > 100 µM
TGI (A498 renal): 91.6 µM
TGI (SF-268 CNS): > 100 µM
TGI (PC-3 prostate): > 100 µM
TGI (A549 NSCLC): > 100 µM
TGI (HS 578T breast): > 100 µM
TGI (SW-620 colon): > 100 µM

Reference: PubChem BioAssay (NCI)
